Assay results: US20170166558A1, “O-GLCNAC TRANSFERASE (OGT) INHIBITORS AND USES THEREOF” (President and Fellows of Harvard College, priority 2014, published 2017)

Test system: CHO, HEK-293, HeLa and D283-Med cells
Assay: Immunoblotting of global O-GlcNAcylation in various mammalian cell types
Type: cell-based
Conditions: 50 μM, 24 hours
Procedure: In vivo inhibition of glycosylation: For all immunoblotting experiments, CHO-K1 (CHO) cells were grown in F12-K media supplemented with 10% FBS and antibiotics at 37° C. in a 5% CO2 incubator. Cells were treated by adding indicated inhibitor in DMSO vehicle (0.5% final vehicle concentration) upon reaching 70% confluence. After indicated treatment length, cells were harvested by aspirating growth media and washing with ice cold 1× PBS. Cells were subsequently lysed in boiling 1% SDS/20 mM HEPES 7.9. After cooling to room temperature, 1 mM PMSF, 10 μM PUGNAC, 10 μM TMG and 1× Complete protease inhibitor cocktail were added to the solution. The mixture was sonicated and then subjected to a 5 minute incubation at 95° C. The samples were centrifuged for 15 minutes at 20,000×g and the supernatant was collected and the total protein was measured by BCA assay (BIO-RAD).
The sample was separated by SDS-PAGE (Bio-Rad 4-15%, Cat: 345-0028), transferred to a nitrocellulose membrane (iBlot, Invitrogen) and probed with the indicated antibody. Tyipcally, membranes were blocked with 4% BSA in 1× TBS+0.04% tween-20 for 1 hour before incubating with antibody (typically diluted 1:1000 in 4% BSA inlx TBS+0.04% tween-20) overnight at 4° C. […]

COc1ccccc1[C@@H](NS(=O)(=O)c1ccc2[nH]c(=O)ccc2c1)C(=O)N(Cc1ccco1)Cc1cccs1 [OSMI-1, (R)—N-(furan-2-ylmethyl)-2-(2-methoxyphenyl)-2-(2-oxo-1,2-dihydroquinoline-6-sulfonamido)-N-(thiophen-2-ylmethyl)acetamide]
Global O-GlcNAc levels in four cell lines: reduce global O-GlcNAc levels in all four lines examined
